Source: patent US5248696A, “Composition and method for treating tumors” (World Research Institute for Science and Technology, Inc., priority 1991, dated 1993)

Parameters: species or system female CD1 mice
Conditions: mouse, in vivo
Protocol: In accordance with the procedure outlined in Canc. Res. 47: 3707-3711, female CD1 mice (obtained from Charles River Laboratories) were inoculated intraperitoneally with 10^6 S 180 cells in 100 microliters of phosphate buffered saline (PBS). Controls received PBS only. Both tumor and control mice were divided into three groups of ten mice per group. Rosin and technical grade abietic acid were each dissolved in ethanol at a concentration of 200 mg/ml which was diluted with 10% newborn calf serum in PBS to a ratio of 1:20 to form respective suspensions. Untreated groups (both tumor and control mice) were inoculated intraperitoneally with 1 ml of vehicle alone while […] and the technical grade abietic acid treated groups (both tumor and control) were intraperitoneally inoculated with 1 ml (10 mg) of the technical grade abietic acid suspension, the doses being administered immediately, and thereafter on the third, sixth and ninth days. Data from animals which expired within two hours of any inoculation (at zero, three, six and nine days) were discarded. […]

rosin
adipose tissue deposition: increased deposition of adipose tissue
